The results in this text go back to PMC9151520 (Archives of Toxicology, 2022).

pEC50: −log10 of the molar value. Values joined by “and” are separate entries in the source; they are usually repeats but may differ in a detail not shown here. Equal values may be shown once. Where a name gives a salt, the structure may show the parent alone. Read-outs that look alike come from different tables or passages of the source.

Data set [1] has as its system p53 signaling (p53RE-bla HCT-116 cells). Description: cells. Conditions: Homo sapiens.
Data set [2] has the same test system. The experiment in a line: cells. The format is cell-based.
Data set [3] has as its system p53RE-bla HCT-116 cells.
For data set [4], the system named is p53 signaling (p53RE-bla HCT-116 cells).
The test system is the same in data set [5]. The source holds these as a separate data set.
[6] abbreviates: Homo sapiens, HCT-116, read-out: EC50, p53 activation, cherry pick confirmation.
Where [7] appears, read: Homo sapiens, HCT-116, read-out: Efficacy, p53 activation, cherry pick confirmation.
Where [8] appears, read: HCT-116, read-out: p53 activation EC50, cherry pick confirmation.
Setting [9] is: HCT-116, read-out: p53 activation efficacy, cherry pick confirmation.
[10] abbreviates: read-out: p53 activation EC50, cherry pick confirmation.
Where [11] appears, read: read-out: p53 activation EC50, primary screening.
[12] abbreviates: read-out: Viability EC50, cherry pick confirmation.
Where [13] appears, read: read-out: Viability EC50, primary screening.

As to `O=c1[nH]cc(F)c(=O)[nH]1` [5-Fluorouracil], the pEC50 in data set [1] (HCT-116, read-out: EC50, p53 activation, primary screening) is 5.42. Moreover, the pEC50 in data set [2] (setting [6]) was 4.67. The negative logarithm of the EC50 (pEC50) in data set [2] (Homo sapiens, HCT-116, read-out: EC50, p53 activation, primary screening) was 5.23. Further, in data set [2] (setting [7]), the Emax turned out to be 98.3%. In data set [3], the “EC50, viability, cherry pick confirmation” value is “inactive”; the “EC50, viability, primary screening” value is “inactive”; the “Efficacy, viability, cherry pick confirmation” value was “inactive”; the “Efficacy, viability, primary screening” value was “inactive”. Also, in data set [4], the “EC50, p53 activation, cherry pick confirmation” value is “inactive” and the “Efficacy, p53 activation, cherry pick confirmation” value was “inactive”. In addition, in data set [5], the “EC50, p53 activation, cherry pick confirmation” value was “inactive”; the “EC50, p53 activation, primary screening” value was “inactive”; the “Efficacy, p53 activation, cherry pick confirmation” value is “inactive”; the “Efficacy, p53 activation, primary screening” value is “inactive”.

Take `c1ccc2c(c1)c1cccc3ccc4cccc2c4c31` [Benzo(e)pyrene]: the negative-log EC50 (pEC50) in data set [1] (HCT-116, read-out: p53 activation EC50, primary screening) is 4.70. The Emax in data set [1] (HCT-116, read-out: p53 activation efficacy, primary screening) came out at 48.3%. Moreover, in data set [2], the “p53 activation EC50, cherry pick confirmation” value was “inactive” and the “p53 activation efficacy, cherry pick confirmation” value was “inactive”. Further, the pEC50 in data set [2] (Homo sapiens, HCT-116, read-out: p53 activation EC50, primary screening) is 4.44. Moreover, the Emax in data set [2] (Homo sapiens, HCT-116, read-out: p53 activation efficacy, primary screening) was 104%. Further, in data set [3], the “Viability EC50, cherry pick confirmation” value is “inactive”; the “Viability EC50, primary screening” value is “inactive”; the “Viability efficacy, cherry pick confirmation” value is “inactive”; the “Viability efficacy, primary screening” value was “inactive”. Further, in data set [4], the “p53 activation EC50, cherry pick confirmation” value was “inactive” and the “p53 activation efficacy, cherry pick confirmation” value is “inactive”. In data set [5], the “p53 activation EC50, cherry pick confirmation” value was “inactive”; the “p53 activation EC50, primary screening” value was “inactive”; the “p53 activation efficacy, cherry pick confirmation” value is “inactive”; the “p53 activation efficacy, primary screening” value is “inactive”.

For `Nc1ccn([C@@H]2O[C@H](CO)[C@@H](O)[C@@H]2O)c(=O)n1` [Cytarabine], in data set [1] (HCT-116, read-out: EC50, p53 activation, cherry pick confirmation), the pEC50 is 6.04. In addition, the Emax in data set [1] (HCT-116, read-out: Efficacy, p53 activation, cherry pick confirmation) came out at 33.4%. Moreover, the Emax in data set [1] (HCT-116, read-out: Efficacy, p53 activation, primary screening) turned out to be 31.7%. Also, in data set [2] (setting [6]), the pEC50 was 6.04. In addition, the Emax in data set [2] (setting [7]) worked out at 96.4%. Besides, in data set [2] (Homo sapiens, HCT-116, read-out: Efficacy, p53 activation, primary screening), the Emax came to 83.8%. In data set [3], the “EC50, viability, cherry pick confirmation” value was “inactive”; the “EC50, viability, primary screening” value was “inactive”; the “Efficacy, viability, cherry pick confirmation” value was “inactive”; the “Efficacy, viability, primary screening” value is “inactive”. Moreover, in data set [5], the “EC50, p53 activation, cherry pick confirmation” value is “inactive”; the “EC50, p53 activation, primary screening” value is “inactive”; the “Efficacy, p53 activation, cherry pick confirmation” value is “inactive”; the “Efficacy, p53 activation, primary screening” value is “inactive”.

For `CNC(=O)Oc1cc(C)cc(C(C)C)c1` [Promecarb], the pEC50 in data set [1] (setting [8]) was 4.70. Further, the Emax in data set [1] (setting [9]) is 40.2%. In addition, in data set [2], the “p53 activation EC50, cherry pick confirmation” value was “inactive”; the “p53 activation EC50, primary screening” value is “inactive”; the “p53 activation efficacy, cherry pick confirmation” value is “inactive”; the “p53 activation efficacy, primary screening” value is “inactive”. For the same molecule, in data set [3], the “Viability EC50, cherry pick confirmation” value is “inactive”; the “Viability EC50, primary screening” value is “inactive”; the “Viability efficacy, cherry pick confirmation” value is “inactive”; the “Viability efficacy, primary screening” value was “inactive”. Moreover, in data set [5], the “p53 activation EC50, cherry pick confirmation” value is “inactive” and the “p53 activation efficacy, cherry pick confirmation” value is “inactive”.

For the molecule `CCN(C)C(=O)Oc1cccc([C@H](C)N(C)C)c1` [Rivastigmine tartrate], the negative-log EC50 (pEC50) in data set [1] (setting [8]) was 5.08. Also, the Emax in data set [1] (setting [9]) is 32.8%. Besides, in data set [2], the “p53 activation EC50, cherry pick confirmation” value was “inactive”; the “p53 activation EC50, primary screening” value was “inactive”; the “p53 activation efficacy, cherry pick confirmation” value was “inactive”; the “p53 activation efficacy, primary screening” value is “inactive”. In data set [3], the “Viability EC50, cherry pick confirmation” value was “inactive”; the “Viability EC50, primary screening” value is “inactive”; the “Viability efficacy, cherry pick confirmation” value was “inactive”; the “Viability efficacy, primary screening” value was “inactive”. For the same molecule, in data set [5], the “p53 activation EC50, cherry pick confirmation” value was “inactive” and the “p53 activation efficacy, cherry pick confirmation” value is “inactive”.

`COP(=O)(OC)O/C(=C\Cl)c1cc(Cl)c(Cl)cc1Cl` [Z-Tetrachlorvinphos]: the negative logarithm of the EC50 (pEC50) in data set [1] (setting [8]) was 4.50. Further, the Emax in data set [1] (setting [9]) amounted to 115%. Moreover, in data set [2], the “p53 activation EC50, cherry pick confirmation” value is “inactive”; the “p53 activation EC50, primary screening” value is “inactive”; the “p53 activation efficacy, cherry pick confirmation” value is “inactive”; the “p53 activation efficacy, primary screening” value was “inactive”. In data set [3], the “Viability EC50, cherry pick confirmation” value was “inactive”; the “Viability EC50, primary screening” value is “inactive”; the “Viability efficacy, cherry pick confirmation” value was “inactive”; the “Viability efficacy, primary screening” value is “inactive”. In addition, in data set [5], the “p53 activation EC50, cherry pick confirmation” value is “inactive” and the “p53 activation efficacy, cherry pick confirmation” value was “inactive”.

With PharmaGSID_48505, in data set [2], the “p53 activation efficacy, cherry pick confirmation” value is 67.8753 and the “p53 activation efficacy, primary screening” value was found to be 66.729. Also, in data set [2] (setting [10]), the pEC50 was 5.55. Moreover, the negative logarithm of the EC50 (pEC50) in data set [2] (setting [11]) was 6.40. In data set [3], the “Viability EC50, cherry pick confirmation” value was “inactive”; the “Viability EC50, primary screening” value is “inactive”; the “Viability efficacy, cherry pick confirmation” value is “inactive”; the “Viability efficacy, primary screening” value is “inactive”. In addition, in data set [4], the “p53 activation EC50, cherry pick confirmation” value is “inactive”; the “p53 activation EC50, primary screening” value is “inactive”; the “p53 activation efficacy, cherry pick confirmation” value was “inactive”; the “p53 activation efficacy, primary screening” value is “inactive”. Moreover, in data set [5], the “p53 activation EC50, cherry pick confirmation” value is “inactive”; the “p53 activation EC50, primary screening” value is “inactive”; the “p53 activation efficacy, cherry pick confirmation” value was “inactive”; the “p53 activation efficacy, primary screening” value is “inactive”.

Regarding Potassium dichromate, the “p53 activation efficacy, primary screening” value in data set [2] was 47.8443; in data set [4], “inactive”; in data set [5] it was “inactive”. Further, the negative logarithm of the EC50 (pEC50) in data set [2] (setting [10]) was 4.83; in data set [2] (setting [11]), 5.08; in data set [3] (setting [12]), 4.46 and 4.69; in data set [3] (setting [13]), 4.67 and 4.51. Besides, the “Viability EC50, cherry pick confirmation” value in data set [3] is “inactive”. Further, the “Viability EC50, primary screening” value in data set [3] is “inactive”. The “p53 activation EC50, cherry pick confirmation” value in data set [4] and in data set [5] was “inactive” in each case. Also, the “p53 activation EC50, primary screening” value in data set [4] and in data set [5] was “inactive” each time. Also, the “p53 activation efficacy, cherry pick confirmation” value in data set [4] and in data set [5] was “inactive” each time.

Consider Tannic acid, for which, in data set [2], the “p53 activation efficacy, cherry pick confirmation” value stood at 97.9477 and the “p53 activation efficacy, primary screening” value is 41.698. Further, in data set [2] (setting [10]), the pEC50 is 5.11. In addition, in data set [3], the “Viability EC50, cherry pick confirmation” value is “inactive”; the “Viability EC50, primary screening” value was “inactive”; the “Viability efficacy, cherry pick confirmation” value is “inactive”; the “Viability efficacy, primary screening” value was “inactive”. In addition, in data set [4], the “p53 activation EC50, cherry pick confirmation” value was “inactive”; the “p53 activation EC50, primary screening” value was “inactive”; the “p53 activation efficacy, cherry pick confirmation” value is “inactive”; the “p53 activation efficacy, primary screening” value is “inactive”. Besides, in data set [5], the “p53 activation EC50, cherry pick confirmation” value is “inactive”; the “p53 activation EC50, primary screening” value was “inactive”; the “p53 activation efficacy, cherry pick confirmation” value was “inactive”; the “p53 activation efficacy, primary screening” value is “inactive”.

For Thimerosal, the “p53 activation Efficacy, No MS” value in data set [2] is 73.3573% and 52.656%. Also, the pEC50 in data set [3] (read-out: Viability EC50, HLM) is 4.98 and 5.05; in data set [3] (read-out: Viability EC50, No MS), 5.07 and 5.04; in data set [3] (read-out: Viability EC50, RLM), 5.05; in data set [5] (read-out: p53 activation EC50, HLM) it was 5.30. Further, the “p53 activation EC50, RLM” value in data set [4] was “inactive”. Besides, the “p53 activation Efficacy, RLM” value in data set [4] is “inactive”. Also, in data set [5], the “p53 activation EC50, HLM” value is “inactive”.

Turning to Tricyclodecanedimethanol diacrylate, the “p53 activation efficacy, cherry pick confirmation” value is 41.6463 in data set [2], “inactive” in data set [4] and “inactive” in data set [5]. Also, the “p53 activation efficacy, primary screening” value in data set [2] is 37.7867; in data set [4], “inactive”; in data set [5], “inactive”. Besides, the pEC50 is 4.51 in data set [2] (setting [10]), 4.35 in data set [2] (setting [11]), 4.31 in data set [3] (setting [12]) and 4.31 in data set [3] (setting [13]). In addition, in data set [3], the “Viability EC50, cherry pick confirmation” value was “inactive”. For the same molecule, the “Viability EC50, primary screening” value in data set [3] is “inactive”. The “p53 activation EC50, cherry pick confirmation” value in data set [4] and in data set [5] was “inactive” throughout. Further, the “p53 activation EC50, primary screening” value in data set [4] and in data set [5] was “inactive” each time.

What is called pEC50 is −log10 of the EC50, conventionally taken in molar units.
